Results: patent US8889595B2, “Herbicides” (Syngenta Participations AG, priority 2008, dated 2014)

Experiments:
Type in all cases: in vivo
[1] = system: Alopecurus myosuroides (ALOMY); test: Pre-emergence herbicidal activity, glasshouse; details: pre-emergence spray after one day cultivation; rate 250 g/ha; evaluated after 13 days; 100=total damage to plant, 0=no damage to plant
Experimental: (§1) Seeds of a variety of test species are sown in standard soil in pots. After cultivation for one day (pre-emergence) or after 8 days cultivation (post-emergence) under controlled conditions in a glasshouse (at 24/16° C., day/night; 14 hours light; 65% humidity), the plants are sprayed with an aqueous spray solution derived from the formulation of the technical active ingredient in acetone/water (50:50) solution containing 0.5% Tween 20 (polyoxyethelyene sorbitan monolaurate, CAS RN 9005-64-5). The test plants are then grown in a glasshouse under controlled conditions in a glasshouse (at 24/16° C., day/night; 14 hours light; 65% humidity) and watered twice daily. After 13 days for pre and post-emergence, the test is evaluated (100=total damage to plant; 0=no damage to plant). Test plants: • Lolium perenne (LOLPE), Alopecurus myosuroides (ALOMY), Echinochloa crus-galli (ECHCG), Avena fatua (AVEFA)

Lolium perenne (LOLPE) [2] = test: Pre-emergence herbicidal activity, glasshouse; details: pre-emergence spray after one day cultivation; rate 250 g/ha; evaluated after 13 days; 100=total damage to plant, 0=no damage to plant
Experimental: as §1

[3] = system: Echinochloa crus-galli (ECHCG); test: Pre-emergence herbicidal activity, glasshouse; details: pre-emergence spray after one day cultivation; rate 250 g/ha; evaluated after 13 days; 100=total damage to plant, 0=no damage to plant
Experimental: as §1

Avena fatua (AVEFA) [4] = test: Pre-emergence herbicidal activity, glasshouse; details: pre-emergence spray after one day cultivation; rate 250 g/ha; evaluated after 13 days; 100=total damage to plant, 0=no damage to plant
Experimental: as §1

[5] = system: Alopecurus myosuroides (ALOMY); test: Post-emergence herbicidal activity, glasshouse; details: post-emergence spray after 8 days cultivation; rate 250 g/ha; evaluated after 13 days; 100=total damage to plant, 0=no damage to plant
Experimental: as §1

Lolium perenne (LOLPE) [6] = test: Post-emergence herbicidal activity, glasshouse; details: post-emergence spray after 8 days cultivation; rate 250 g/ha; evaluated after 13 days; 100=total damage to plant, 0=no damage to plant
Experimental: as §1

[7] = system: Echinochloa crus-galli (ECHCG); test: Post-emergence herbicidal activity, glasshouse; details: post-emergence spray after 8 days cultivation; rate 250 g/ha; evaluated after 13 days; 100=total damage to plant, 0=no damage to plant
Experimental: as §1

Avena fatua (AVEFA) [8] = test: Post-emergence herbicidal activity, glasshouse; details: post-emergence spray after 8 days cultivation; rate 250 g/ha; evaluated after 13 days; 100=total damage to plant, 0=no damage to plant
Experimental: as §1

Row | Compound | Pre-Emergence Activity ALOMY [1] | Pre-Emergence Activity LOLPE (Lolium perenne (LOLPE) [2]) | Pre-Emergence Activity ECHCG [3] | Pre-Emergence Activity AVEFA (Avena fatua (AVEFA) [4]) | Post-Emergence Activity ALOMY [5] | Post-Emergence Activity LOLPE (Lolium perenne (LOLPE) [6]) | Post-Emergence Activity ECHCG [7] | Post-Emergence Activity AVEFA (Avena fatua (AVEFA) [8])
1 | COC1=C(c2c(C)cc(C)cc2C)C(=O)C(C(O)c2cc(C)c(C)o2)C1 (centres unmarked) [Compound P1] | 0 | 40 | 0 | 0 |  |  |  | 
2 | Cc1cc(C)c(C2=C(OC(=O)C(C)(C)C)C/C(=C\c3ccoc3)C2=O)c(C)c1 [Compound P2, 2,2-Dimethyl-propionic acid 4-[1-furan-3-yl-meth-(E)-ylidene]-3-oxo-2-(2,4,6-trimethyl-phenyl)-cyclopent-1-enyl ester] | 0 | 90 | 0 | 0 |  |  |  | 
3 | Cc1cc(C)c(C2C(=O)CC(Cc3ccoc3)C2=O)c(C)c1 (centres unmarked) [Compound T2, 4-Furan-3-ylmethyl-2-(2,4,6-trimethyl-phenyl)-cyclopentane-1,3-dione] | 30 | 80 | 0 | 20 | 60 | 80 | 80 | 20
4 | Cc1cc(C)c(C2C(=O)CC(Cc3cc(C)on3)C2=O)c(C)c1 (centres unmarked) [Compound T3, 4-(5-methyl-isoxazol-3-ylmethyl)-2-(2,4,6-trimethyl-phenyl)-cyclopentane-1,3-dione] | 100 | 100 | 80 | 70 | 90 | 90 | 80 | 80
5 | Cc1cc(C)c(C2C(=O)CC(Cc3ccc(C)o3)C2=O)c(C)c1 (centres unmarked) [Compound T4] |  |  |  |  | 40 | 50 | 30 | 20
6 | Cc1cc(C)c(C2C(=O)C/C(=C\c3ccco3)C2=O)c(C)c1 (centres unmarked) [Compound T8] |  |  |  |  | 10 | 30 | 30 | 0
